The results in this text go back to PubChem BioAssay (NCI).

Common to all, as to experiment: DTP human tumour cell line panel, 48 h
The subject of test [1] is A549 NSCLC.
In test [2] the test system is EKVX NSCLC.
In test [3] the test system is HL-60(TB) leukemia.
The subject of test [4] is IGROV1 ovarian.
Test [5] deals with MDA-MB-231 breast.
The subject of test [6] is MDA-MB-435.
The subject of test [7] is SF-539 CNS.
Test [8] has as its system SK-MEL-2 melanoma.
Test [9] deals with SK-OV-3 ovarian.
In test [10] the test system is TK-10 renal.

Values joined by “and” are separate entries in the source; they are usually repeats but may differ in a detail not shown here. Equal entries are not always repeated.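 Grown in 96-well plates, cells were treated for 48 hours with each compound at five concentrations. Insufficient inhibition: endpoint recorded as highest concentration tested. GI50 marks 50% less growth. The concentration for full growth arrest is given as TGI.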

With `CON=C1C[C@]2(C[C@@H]3C[C@@H](C/C=C(\C)C[C@@H](C)/C=C/C=C4\CO[C@@H]5[C@H](O)C(C)=C[C@@H](C(=O)O3)[C@]45O)O2)O[C@H](/C(C)=C/C(C)C)[C@H]1C`, the GI50 in test [1] is 13.8 µM; in test [2] it was 6.99 µM; in test [3] it was 2.48 µM; in [4] it was 11.5 µM; in [5] it was 11.2 µM; in test [6], 7.98 µM. In addition, the GI50 in test [7] is 20.4 µM; in test [8] it was 15.4 µM; in test [9], 15.2 µM; in [10] it was 17.8 µM. For the same molecule, the TGI in [1] amounted to 29.1 µM; in [2], 24 µM; in test [3], 5.92 µM; in test [4], 23.9 µM; in test [5], 24.9 µM; in test [6], 21.5 µM. The TGI is 36.9 µM in [7], 32.5 µM in test [8], 28.5 µM in [9] and 33.4 µM in test [10].

Turning to `O=C(Nc1ccc(Oc2ccc(NC(=O)Nc3ccccc3Cl)cc2)cc1)Nc1ccccc1Cl`, the GI50 is 2.69 µM in test [1]; 16.4 µM in [2]; 14.8 µM in test [3]; 3.57 µM in test [4]; 9.4 µM in test [5]; > 100 µM in test [6]. Further, the GI50 was 6 µM in test [7], 8.17 µM in test [8], 9.33 µM in test [9] and 4.72 µM in test [10]. Further, the total growth inhibition concentration (TGI) in test [1] was > 26.1 µM; in test [2], > 100 µM; in test [3], 32.4 µM; in test [4], 14.8 µM; in test [5], 29.6 µM; in test [6], > 100 µM. Also, the TGI was 22.1 µM in test [7], > 20.4 µM in test [8], 38.1 µM in [9] and 45.1 µM in [10].

Turning to `CCC(CC)c1cc(N[C@H]2CC[C@H](N)C2)n2nccc2n1`, the GI50 in [1] is 0.511 µM; in [2], 1.7 µM; in test [3], 0.324 µM; in [4], 2.38 µM; in test [5], 1.05 µM; in test [6], 1.38 µM. Moreover, the GI50 in [7] is 1 µM; in test [8] it was 1.64 µM; in test [9], 3.44 µM; in [10], 3.58 µM. For the same molecule, the concentration for total growth inhibition (TGI) was > 100 µM in [1]; 5.16 µM in [2]; 14.9 µM in [3]; > 100 µM in [4]; > 100 µM in [5]; 3.76 µM in [6]. Also, the TGI was 5.07 µM in test [7], 3.64 µM in test [8], > 100 µM in test [9] and > 100 µM in test [10].

Take `COc1cc(N2CCN(C(C)C)CC2)ccc1Nc1nc(Nc2ccc(F)cc2C(=O)NCC(O)CO)c2cc[nH]c2n1` (centres undefined): the GI50 in test [1] is 5.76 µM; in test [2], > 13.8 µM; in [3], 1.08 µM; in test [4] it was 11.1 µM; in test [5], 13.6 µM; in test [6], 4.99 µM. Moreover, the GI50 was 5.13 µM in test [7], 4.18 µM in test [8], 6.85 µM in test [9] and 11.9 µM in [10]. In addition, the TGI in test [1] was > 25 µM; in [2], > 25 µM; in [3], 13.6 µM; in test [4] it was > 25 µM; in [5] it was > 25 µM; in [6], > 25 µM. In addition, the TGI was > 25 µM in [7], > 23.6 µM in [8], > 25 µM in test [9] and > 25 µM in [10].

For `COc1ccc(CN2C(=O)/C(=C\C(=O)c3ccc(OCCN4CCCC4)cc3)c3ccccc32)cc1`, the GI50 in [1] is 13.2 µM; in test [2], 11.3 µM; in test [3] it was 2.61 µM; in [4], 1.99 µM; in test [5], 2.17 µM; in [6] it was 1.81 µM. Further, the GI50 was 1.82 µM in [7], 17.1 µM in test [8], 18.6 µM in test [9] and 1.74 µM in [10]. Moreover, the TGI in test [1] turned out to be 36.2 µM; in test [2], 34.2 µM; in test [3], 6.7 µM; in [4], 3.78 µM; in [5], 4.44 µM; in test [6], 3.74 µM. Besides, the concentration for total growth inhibition (TGI) in test [7] worked out at 3.75 µM; in test [8], 37.4 µM; in test [9], 34 µM; in test [10], 3.33 µM.

On to `C=C[C@H]1CN2CCc3c([nH]c4c([C@@H]5CCCN5C)c(O)ccc34)[C@@H]2C[C@@H]1C[C@H]1c2[nH]c3ccccc3c2CCN1C`, for which the TGI in test [1] is 3.12 µM and 3.13 µM; in [2] it was 2.94 µM and 3.07 µM; in [3], 2.06 µM and 1.85 µM and 1.9 µM; in test [4], 2.67 µM and 2.75 µM; in [5], 3.16 µM and 3.46 µM; in test [6], 2.99 µM and 2.95 µM and 3.15 µM. The TGI is 3.14 µM and 0.41 µM and 3.09 µM in test [7]; 3.37 µM in test [8]; 3.23 µM [middle of 4 runs] in [9]; 0.993 µM and 2.98 µM and 3.44 µM in [10]. The GI50 in test [6] is 1.71 µM; in test [7], 0.197 µM; in test [9], 2.03 µM; in test [10] it was 0.031 µM.

For `Cc1cc2c(C(=O)NCC#N)cccc2n1-c1nc2c(c(NCc3ccccc3)n1)CCCC2`, the GI50 in test [1] is 0.312 µM; in [2], 0.329 µM; in test [3] it was 0.311 µM; in test [4], 0.315 µM; in test [5] it was 0.273 µM; in [6] it was 0.249 µM. Further, the GI50 in test [7] was 0.249 µM; in test [8], 0.231 µM; in test [9], 0.431 µM; in test [10], 0.331 µM. In addition, the concentration for total growth inhibition (TGI) is 1.28 µM in test [1]; 2.4 µM in test [2]; > 100 µM in test [3]; 1.24 µM in test [4]; 0.59 µM in test [5]; 0.809 µM in test [6]. In addition, the TGI came out at 0.764 µM in [7], 0.644 µM in test [8], 2.78 µM in test [9] and 0.976 µM in test [10].
